Experimental data: the SangsterLogP compilation
Blank lines part the entries; values can stand above or below the compound they belong to.

SMILES: C[C@H](C(=O)NC1CCCC1)N(c1ccc(Cl)cc1)S(C)(=O)=O
logD (pH 5.0): 3.48

SMILES: C[C@]12CC[C@@H]3C[C@@]1(C(=O)NCC(F)(F)F)OC[C@@]32C
logD (pH 5.0): 3.11

SMILES: C[C@H]1C[C@H](C)CN(C(=O)CSc2nnc(-c3ccccc3)n2C)C1
logD (pH 10.0): 3.68

SMILES: C[C@H](NC(=O)C1CC1)c1ccccc1
logD (pH 5.0): 1.85

SMILES: CCC[C@@H]1C(=O)C[C@H](C(C)C)C(C#N)(C#N)C1(C#N)C#N
logD (pH 5.0): 3.3

SMILES: O=C(c1sc2cc(Cl)ccc2c1Cl)N1CCN(C(=S)NC[C@H]2CCCO2)CC1
logD (pH 5.0): 4.83

SMILES: CCCCSC1=C(C#N)[C@H](c2cccc([N+](=O)[O-])c2)C(C(C)=O)=C(C)N1
logD (pH 10.0): 4.44

SMILES: CCOCc1c(C)cc(C)c([C@@H]2C(C#N)=C(N)Oc3[nH]nc(C)c32)c1C
logD (pH 10.0): 4.09

SMILES: Cn1c(N)c(C(=O)CSc2nc3sc4c(c3c(=O)n2Cc2ccccc2)CCC4)c(=O)n(C)c1=O
logD (pH 10.5): 5.21

SMILES: FC(F)Oc1ccc(NC(=S)NC[C@@H]2CCCO2)cc1Cl
logD (pH 5.0): 3.74

SMILES: CCC[C@@H](C)NC(=O)COc1ncnc2sc3c(c12)CC[C@@H](C)C3
logD (pH 10.0): 4.55

SMILES: C[C@@H]1CCCN(c2nc3c(c(=O)n(C)c(=O)n3C)n2CCSc2nc3ccccc3s2)C1
logD (pH 6.5): 5.05

SMILES: O=C(CCCCCN1C(=O)/C(=C\c2cccs2)SC1=S)N1CCOCC1
logD (pH 6.5): 4.92

SMILES: Cc1cccc(NC(=O)NC(C)C)c1C
logD (pH 5.0): 2.7

SMILES: O=C(c1nn2c(c1Br)N[C@H](c1cccs1)C[C@H]2C(F)(F)F)N1CCCC1
logD (pH 5.0): 4.47

SMILES: CCN(CC)S(=O)(=O)N1CCC[C@H](C(=O)NC2CCCCC2)C1
logD (pH 5.0): 3.58

SMILES: CC(C)(C)C(=O)[C@H]1[C@H](c2ccsc2)C(C#N)(C#N)[C@H]2C=Cc3ccccc3N12
logD (pH 10.0): 3.37

SMILES: COC(=O)CC1=C(C(=O)OC)[C@]2(C(=O)Nc3ccccc32)C(C(=O)OCc2ccccc2)=C(N)O1
logD (pH 10.5): 4.25

SMILES: C[C@@H](CCc1ccccc1)NC(=O)C(=O)NC[C@@H]1COc2ccccc2O1
logD (pH 6.5): 4.8

SMILES: CCCc1[nH]nc2c1[C@@]1(C(=O)N(CC(N)=O)c3ccccc31)C(C(=O)OC)=C(N)O2
logD (pH 8.0): 4.48

SMILES: CC[C@@H]1CCCCN1C(=O)CSc1nc(C)cc(C)n1
logD (pH 10.5): 3.61

Results, then the compound that gave them:

logD (pH 10.5): 4.52
SMILES: COc1cccc(C2=NN=C3OC(N)=C(C#N)[C@H](c4cc(OC)c(OC)cc4Br)[C@@H]32)c1

logD (pH 6.5): 4.75
SMILES: Cc1cccc(NC(=O)C[C@@H]2S/C(=N\c3c(C)cccc3C)N(C)C2=O)c1

logD (pH 7.3): 5.48
SMILES: CC1=NC2=C(C(=O)CCC2)[C@H](c2ccc(Cl)cc2)C1C(=O)OCCc1ccccc1 (some centres undefined)

logD (pH 5.0): 4.09
SMILES: N#C[C@@H](Cc1cccs1)c1ncc(C(F)(F)F)cc1Cl

logD (pH 5.0): 5.92
SMILES: O=C(Nc1cccc(Cl)c1)c1cc2n(n1)[C@H](C(F)(F)F)C[C@@H](c1ccccc1)N2

logD (pH 5.0): 5.31
SMILES: COc1ccc(C(=O)/C=C/Nc2ccc(Cl)c(C(F)(F)F)c2)cc1OC

logD (pH 5.0): 5.83
SMILES: C[C@@H](Oc1ccc(F)cc1F)C(=O)c1cn(-c2ccc(OC(F)(F)F)cc2)nn1

logD (pH 5.0): 2.75
SMILES: C[C@@H](OC(=O)c1cccc(C(F)(F)F)c1)C(N)=O

logD (pH 5.0): 4.71
SMILES: Cc1ccc(C(=O)COc2cccc(N3C(=O)[C@@H]4[C@H]5CC[C@H](C5)[C@@H]4C3=O)c2)cc1C

logD (pH 10.5): 4.73
SMILES: C[C@H](NC(=O)CSc1ncnc2c1cnn2-c1ccccc1)c1ccccc1

logD (pH 5.0): 4.55
SMILES: CC1(C)CC(=O)C2=C(C1)OC(N)=C(C#N)[C@H]2c1ccc(C(F)(F)F)cc1

logD (pH 5.0): 4.17
SMILES: CCCN(CCC)S(=O)(=O)c1ccc(C(=O)OCCN2C(=O)C3C4c5ccccc5C(c5ccccc54)C3C2=O)cc1 (centres undefined)

logD (pH 6.5): 4.47
SMILES: CCOC(=O)c1[nH]c(C)c(C(=O)OCC(=O)N2CCc3ccccc32)c1C

logD (pH 10.5): 3.29
SMILES: OC[C@@H](O)Cn1c(SCCSc2nc3ccccc3n2C[C@H](O)CO)nc2ccccc21

logD (pH 10.0): 5.44
SMILES: CC1=C(C(=O)OCCc2ccccc2)[C@@H](c2ccc3c(c2)OCO3)C2=C(C[C@H](c3cccs3)CC2=O)N1

logD (pH 6.5): 3.77
SMILES: COC(=O)c1cc(N2C(=O)[C@H]3[C@@H](C2=O)[C@]2(C(OC(C)=O)OC(C)=O)C=C[C@H]3O2)ccc1Cl

logD (pH 5.0): 4.62
SMILES: CC(=O)Nc1ccc(C(=O)N(Cc2ccco2)C2(C(=O)Nc3c(C)cccc3C)CCCCC2)cc1

logD (pH 5.0): 5.04
SMILES: CC1(C)CC(=O)C2=C(C1)N(c1c(F)cccc1F)C(N)=C(C#N)[C@@H]2c1cccc(Cl)c1

logD (pH 5.0): 3.99
SMILES: Cc1c(N[C@@H](NC(=O)c2cccc([N+](=O)[O-])c2)C(Cl)(Cl)Cl)c(=O)n(-c2ccccc2)n1C

logD (pH 5.0): 2.85
SMILES: COc1ccc([C@@H]2CCCC[C@H]2O)cc1

logD (pH 10.0): 3.79
SMILES: CCOC(=O)C1=C(C)NC2=C(C(=O)C[C@H](c3ccc(OC)c(OC)c3)C2)[C@H]1c1ccccc1OC

logD (pH 5.0): 3.33
SMILES: O=C(NC[C@H]1CCCO1)c1cc2nc(C3CC3)cc(C(F)(F)F)n2n1

logD (pH 2.0): 2.41
SMILES: CC(=O)N1Cc2ccccc2C[C@H]1C(=O)OCc1ccc(C#N)cc1

logD (pH 2.0): 3.08
SMILES: CC[C@@H](NS(=O)(=O)c1ccc(C)cc1)C(=O)Oc1ccc2c3c(c(=O)oc2c1)CCCC3

logD (pH 6.5): 4.3
SMILES: O=C(CN1N=N[C@@H]2C(=O)N(c3ccc(Cl)cc3Cl)C(=O)[C@@H]21)Nc1ccccc1

logD (pH 10.5): 3.53
SMILES: Cc1ccc([C@@H](O)C#CC(O)(c2ccccc2)c2ccccc2)o1

logD (pH 10.5): 4.77
SMILES: CCOC(=O)C1=C(C)N=c2s/c(=C\c3ccc(OC(C)=O)cc3)c(=O)n2C1c1cccs1 (centres undefined)

logD (pH 5.0): 4.11
SMILES: CCOc1cc(C(=O)Nc2ccc(OC)c(OC)c2)cc(OCC)c1OCC
